Paper PMC7932537, “Quantitative profiling of protease specificity” (PLoS Computational Biology, 2021)

How the values were obtained:
Assay type in all cases: biochemical, human
MMP-2 [1] = assay: N-terminomic (TMT) analysis of MMP-treated HEK293 secretome: isotopic enrichment of novel N-termini
Procedure: (§1) This was done to achieve a reasonable compromise between the false positive and false negative rates based on the statistical model developed by the authors. […] (See Methods for details).
(§2) HEK293 cells were seeded in 150-mm tissue culture dishes (Corning) and grown to confluence. The confluent cultures were washed with PBS several times to remove serum proteins and kept in serum-free DMEM supplemented with 1 μM GM6001 for 72 hours at 37 C, 5% CO2. The conditioned media was centrifuged at 10,000 x g for 30 minutes at 4 C and concentrated ~100-fold using Centricon Plus-70 (AMD Millipore) 3-kDa m.w. cut-off ultrafilter, and the buffer was exchanged to 50 mM HEPES pH 7.0 containing 150 mM NaCl and 10 mM CaCl2 (Reaction Buffer) using a PD-10 desalting column (GE Healthcare). Aliquots containing 240 μg total protein were incubated at 37 C in the presence of 750 nM MMP2 or 9 or the Reaction Buffer alone for 2 hours. Each reaction was carried out in duplicate. The reactions were stopped by addition of 20 mM EDTA and subjected to denaturation/reduction (4M Urea and 10 mM TCEP, 1 h, 22°C) and alkylation (20 mM iodoacetamide, 30 min, 22°C, in dark). […] The TMT-labeled samples were pooled together, and subjected to TCA precipitation (20% TCA, 16 h, 4°C). Each pellet was washed with -20°C acetone, recovered in 50 mM Tris-HCl pH 8.0, and then digested with trypsin/Lys-C (Promega) for 16 h at 37°C. Digestions were stopped with 0.2% TFA and centrifuged to remove insoluble material. The supernatants were then desalted using Sep-Pak C18 cartridge (50 mg), and then lyophilized.
(§3) Dried pooled sample was reconstituted in 20 mM ammonium formate pH ~10 and fractionated using a Waters Acquity BEH C18 column (2.1x 15 cm, 1.7 μm pore size) mounted on an M-Class Ultra Performance Liquid Chromatography (UPLC) system (Waters). […] A total of 32 fractions were collected and pooled in a non-contiguous manner into 16 total fractions. Pooled fractions were dried to completeness in a SpeedVac concentrator prior to mass spectrometry analysis.
(§4) Dried peptide fractions were reconstituted with 2% ACN-0.1% FA and analyzed by LC-MS/MS using a Proxeon EASY nanoLC system (Thermo Fisher Scientific) coupled to a Q-Exactive Plus mass spectrometer (Thermo Fisher Scientific). […] The mass spectrometer was operated in positive data-dependent acquisition mode. MS1 spectra were measured with a resolution of 70,000 (AGC target: 1e6; mass range: 350–1700 m/z).
(§5) The false discovery rate (FDR) filter for spectrum and protein identification was set to 1%. Carbamidomethylation of cysteines was searched as a fixed modification, while oxidation of methionines and N-terminal acetylation were searched as variable modifications. Enzyme was set to trypsin in a semispecific mode and a maximum of two missed cleavages was allowed for searching. To obtain quantification of the TMT-labeled N-termini, two independent searches were performed–one with TMT10plex MS2 N-terminal reporter quantification and the other for quantification of N-terminal and lysine sidechain.

MMP-9 [2] = assay: as above; conditions: for isotopic enrichment (log2(ratio)): MMP9 cleavages in HEK293 cell proteins, determined by LC-MS/MS, log2(ratio) range (>3σ, 2σ-3σ, 1σ-2σ)
Procedure: as §1, §2, §3, §4, §5

MMP-2 [3] = assay: Substrate phage display with NGS: relative probability (RP) of P3-P1' tetramer clusters; conditions: RP of matching tetramer of the cleavage site; unique part of MMP9 selectome
MMP-9 [4] = assay: as above; conditions: RP of matching tetramer of the cleavage site; unique part of MMP9 selectome
[5] = HEK293 secretome, 750 nM MMP-2, 2 h, 37 C, TMT reporter ratio vs untreated control, LC-MS/MS, duplicate
[6] = HEK293 secretome, 750 nM MMP-9, 2 h, 37 C, TMT reporter ratio vs untreated control, LC-MS/MS, duplicate
[7] = MMP2 cleaved HEK293 proteins, common set of MMP2-9 selectome, LC-MS/MS
[8] = MS detected cleavage sequence, HEK293 proteins, common MMP2-9 selectome
[9] = MMP9, HEK293 proteins, common set of MMP2-9 selectome, LC-MS/MS
[10] = MS detected cleavage sequence, HEK293 proteins, unique part of MMP2 selectome

Substance | isotopic enrichment (log2(ratio)) (acc.to MMP2) (MMP-2 [1]; [5]) | isotopic enrichment (log2(ratio)) (acc.to MMP9) (MMP-9 [2]; [6]) | isotopic enrichment (log2(ratio)) (MMP-9 [2]) | relative probability (RP) (acc.to MMP2) (MMP-2 [3]) | relative probability (RP) (acc.to MMP9) (MMP-9 [4]) | isotopic enrichment (log2(ratio)) (acc.to MMP2) (MMP-2 [1]; [7]) | isotopic enrichment (log2(ratio)) (acc.to MMP2) (MMP-2 [1]; [8]) | isotopic enrichment (log2(ratio)) (acc.to MMP9) (MMP-9 [2]; [9]) | isotopic enrichment (log2(ratio)) (acc.to MMP9) (MMP-9 [2]; [8]) | isotopic enrichment (log2(ratio)) (acc.to MMP2) (MMP-2 [1]; [10]) | isotopic enrichment (log2(ratio)) (acc.to MMP9) (MMP-9 [2]; [10]) | isotopic enrichment (log2(ratio)) (MMP-2 [1]; MMP2 cleavages in HEK293 cell proteins, determined by LC-MS/MS, novel N-termini, sections log2(ratio) >3σ, 2σ-3σ, 1σ-2σ, RP above 4.5)
DSTMN-MLGGGG | 0.8797 log2(ratio) | 1.618 log2(ratio) | 1.618 | 0 | 6.67 |  |  |  |  |  |  | 
FCPMA-AHEEIC [MS detected cleavage site in Fibronectin (P02751)] | 0.5261 log2(ratio) | 1.774 log2(ratio) | 1.774 | 3.68 | 16.94 |  |  |  |  |  |  | 
GKPFK-IQVLVE [MS detected cleavage site in Galectin-3 (P17931)] | 0.7991 log2(ratio) | 1.459 log2(ratio) | 1.459 | 1.13 | 34.84 |  |  |  |  |  |  | 
KHIYY-ITGETK [MS detected cleavage site in Heat shock protein HSP 90-alpha (P07900)] | 0.7225 log2(ratio) | 3.338 log2(ratio) | 3.338 | 0.69 | 14.54 |  |  |  |  |  |  | 
KPPRL-VGGPMD [MS detected cleavage site in Cystatin-C (P01034)] | 0.8156 log2(ratio) | 1.9855 log2(ratio) | 1.9855 | 0.07 | 7.12 |  |  |  |  |  |  | 
KSIYY-ITGESK [MS detected cleavage site in Heat shock protein HSP 90-beta (P08238)] | 0.3785 log2(ratio) | 3.962 log2(ratio) | 3.962 |  | 14.54 |  |  |  |  |  |  | 
LPPDH-LNGVKL | 1.257 log2(ratio) | 2.07 log2(ratio) | 2.07 | 2.08 | 13.06 |  |  |  |  |  |  | 
NHIRY-VISQGN [MS detected cleavage site in Fibrillin-2 (P35556)] | 1.367 log2(ratio) | 3.134 log2(ratio) | 3.134 | 0.96 | 10.4 |  |  |  |  |  |  | 
SSPRH-SEAATA |  |  | 4.654 |  |  | 3.599 | 3.599 log2(ratio) | 4.654 | 4.654 log2(ratio) |  |  | 
STMNM-LGGGGS |  |  |  |  |  |  |  |  |  | 2.417 log2(ratio) | 0.9184 log2(ratio) | 
SYAGS-LAEPYE |  |  |  |  |  | 1.521 |  | 0.9635 |  |  |  | 1.521 log2(ratio)
TDPSK-LDSGKE |  |  | 2.9782 |  |  | 1.911 | 1.911 log2(ratio) | 2.9782 | 2.9782 log2(ratio) |  |  | 
TGPRF-LISDRD |  |  | 2.331 |  |  | 1.669 | 1.669 log2(ratio) | 2.331 | 2.331 log2(ratio) |  |  | 
TQQAQ-LAAAAE |  |  |  |  |  |  |  |  |  | 2.74 log2(ratio) | 0.8319 log2(ratio) | 
TRPLA-VEVVTE |  |  | 4.995 |  |  | 4.353 | 4.353 log2(ratio) | 4.995 | 4.995 log2(ratio) |  |  | 
VAAKN-LQEAEE |  |  | 2.192 |  |  | 1.485 | 1.485 log2(ratio) | 2.192 | 2.192 log2(ratio) |  |  | 
VCPRG-YVTSTD |  |  | 5.174 |  |  | 2.108 | 2.108 log2(ratio) | 5.174 | 5.174 log2(ratio) |  |  | 
VLPVN-VTDYCQ |  |  | 3.756 |  |  |  | 0.7225 log2(ratio) |  | 3.756 log2(ratio) |  |  | 
VNPVL-LSGPEA |  |  | 2.457 |  |  | 1.599 | 1.599 log2(ratio) | 2.457 | 2.457 log2(ratio) |  |  | 
VTPAN-ASGIND |  |  |  |  |  |  |  |  |  | 0.9486 log2(ratio) | 1.864 log2(ratio) | 
VVPFG-VPASAT |  |  | 2.014 |  |  |  | 0.189 log2(ratio) |  | 2.014 log2(ratio) |  |  | 
YNPMA-LYGSVP |  |  | 1.709 |  |  |  | 0.669 log2(ratio) |  | 1.709 log2(ratio) |  |  | 
YRPVA-VALDTK |  |  | 2.604 |  |  | 1.934 | 1.934 log2(ratio) | 2.604 | 2.604 log2(ratio) |  |  | 
